Reference: ChEMBL document CHEMBL1201862, “PubChem BioAssay data set” (2004)
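Five concentrations, 48 hours, 96-well plates. GI50 marks 50% less growth.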 The source made the active and inactive calls. No stated cut-off is given here; in the data, active = GI50 up to about 1.1 µM and inactive = higher.

How the values were obtained:
Test in all cases: NCI-60 cell line screen, 48 h
[1] = tested on: SK-MEL-2
[2] = tested on: HL-60
[3] = tested on: OVCAR-8
[4] = tested on: UACC-257
[5] = tested on: HOP-62
[6] = tested on: MOLT-4
[7] = tested on: OVCAR-3
[8] = tested on: HCT-116
[9] = tested on: A549
[10] = tested on: SW-620
[11] = tested on: UO-31
[12] = tested on: M14
[13] = tested on: HT-29
[14] = tested on: IGROV-1
[15] = tested on: A498
[16] = tested on: LOX IMVI

Measured: GI50

CN(C)CCC(CCN(C)C)=NOC(=O)c1ccccc1
inactive: [1] > 100 µM | [2] > 100 µM | [3] > 100 µM | [4] > 100 µM | [5] > 100 µM | [6] > 100 µM | [7] > 100 µM | [8] > 100 µM | [9] > 100 µM | [10] > 100 µM | [11] > 100 µM | [12] > 100 µM | [13] > 100 µM | [14] > 100 µM | [15] > 100 µM

CC(=O)C1=C(C)Cn2c(=O)c3ccccc3c(=O)n2C1
inactive: [1] > 100 µM | [2] > 100 µM | [3] > 100 µM | [4] > 100 µM | [5] > 100 µM | [6] > 100 µM | [7] > 100 µM | [8] > 100 µM | [16] > 100 µM | [9] > 100 µM | [10] > 100 µM | [11] > 100 µM | [12] > 100 µM | [13] > 100 µM | [14] > 100 µM | [15] 82 µM

N#C/C(=C\c1cc2ccccc2c2ccccc12)c1ccccc1
inactive: [1] 3.39 µM | [2] 3.04 µM | [3] 30 µM | [4] 9.62 µM | [5] 2.49 µM | [6] 7.26 µM | [7] 3.45 µM | [8] 5.3 µM | [16] 9.51 µM | [9] 7.46 µM | [10] 4.65 µM | [11] 22.2 µM | [12] 6.05 µM | [13] 4.45 µM | [14] 11.8 µM | [15] 9.18 µM

Cn1cc(C(=O)NCCC(=N)N)cc1NC(=O)C1=[N+](C)C=C(NC(=O)c2cccc(C(=O)NC3=CC(C(=O)Nc4cc(C(=O)NCCC(=N)N)cn4C)=[N+](C)C3)c2)C1
inactive: [1] > 100 µM | [2] > 100 µM | [3] > 100 µM | [4] 93.1 µM | [5] > 100 µM | [6] > 100 µM | [7] > 100 µM | [16] > 100 µM | [9] > 100 µM | [10] > 100 µM | [11] > 100 µM | [12] > 100 µM | [13] > 100 µM | [14] > 100 µM | [15] > 100 µM

Cc1ccc(S(=O)(=O)c2ccc(NC(=O)SCCC(=O)O)cc2)cc1
inactive: [1] > 100 µM | [2] > 100 µM | [3] > 100 µM | [4] > 100 µM | [5] > 100 µM | [6] > 100 µM | [7] > 100 µM | [8] > 100 µM | [16] > 100 µM | [9] > 100 µM | [10] > 100 µM | [11] > 100 µM | [12] > 100 µM | [13] > 100 µM | [14] 5.14 µM | [15] > 100 µM

Cc1cccc(C)c1NC(=O)C(=O)CC(=O)c1cccc([N+](=O)[O-])c1
inactive: [1] > 100 µM | [2] > 100 µM | [3] > 100 µM | [4] > 100 µM | [5] > 100 µM | [6] > 100 µM | [7] > 100 µM | [8] > 100 µM | [9] > 100 µM | [10] > 100 µM | [11] > 100 µM | [12] > 100 µM | [13] > 100 µM | [14] > 100 µM | [15] > 100 µM

CC(C)(C)c1cc(Cc2ccc([N+](C)(C)C)cc2)c(O)c(C(C)(C)C)c1
inactive: [1] 16.5 µM | [2] 2.41 µM | [3] 17.4 µM | [4] 17 µM | [5] 16.6 µM | [6] 11.8 µM | [8] 16.7 µM | [16] 16.4 µM | [9] 33.9 µM | [10] 23.2 µM | [11] 95.3 µM | [12] 18.2 µM | [13] 15.4 µM | [14] 14.2 µM | [15] 53 µM

NC(=S)N/N=C(\C(=O)Nc1cccc([N+](=O)[O-])c1)c1nc2ccc([N+](=O)[O-])cc2nc1O
inactive: [1] > 100 µM | [2] 19.9 µM | [3] > 100 µM | [4] 7.8 µM | [5] 56.8 µM | [6] 18.2 µM | [8] 58.5 µM | [16] 34.7 µM | [9] 91.2 µM | [10] > 100 µM | [11] > 100 µM | [12] 88.9 µM | [13] > 100 µM | [14] > 100 µM | [15] > 100 µM

Nc1nc2c(ncn2C2OC(CO)C(O)C2N)c(=O)[nH]1 (stereo not given)
inactive: [1] > 100 µM | [2] 97.9 µM | [3] > 100 µM | [4] > 100 µM | [5] > 100 µM | [6] > 100 µM | [7] > 100 µM | [8] > 100 µM | [16] 60.1 µM | [9] 97.1 µM | [10] > 100 µM | [11] > 100 µM | [12] > 100 µM | [13] > 100 µM | [14] > 100 µM | [15] > 100 µM

COc1ccc(S(=O)(=O)NNS(C)(=O)=O)cc1
inactive: [1] 60.5 µM | [2] > 100 µM | [3] > 100 µM | [4] > 100 µM | [5] > 100 µM | [6] > 100 µM | [8] > 100 µM | [16] > 100 µM | [9] > 100 µM | [10] > 100 µM | [11] > 100 µM | [12] > 100 µM | [13] > 100 µM | [14] > 100 µM | [15] > 100 µM

COc1ccc([C@@H]2OC(=O)C3C2C(=O)O[C@H]3c2ccc(OC)c(OC)c2)cc1OC (stereo not given in full)
inactive: [1] > 100 µM | [2] > 100 µM | [3] > 100 µM | [4] > 100 µM | [5] > 100 µM | [6] > 100 µM | [7] > 100 µM | [8] > 100 µM | [16] > 100 µM | [9] > 100 µM | [10] > 100 µM | [11] > 100 µM | [12] > 100 µM | [13] > 100 µM | [14] > 100 µM | [15] > 100 µM

COc1ccc(NC(=O)COC(=O)c2cccc3c(=O)c4ccccc4[nH]c23)cc1
inactive: [2] 13.1 µM | [3] 22.4 µM | [4] 19.9 µM | [5] 23.8 µM | [6] 14.2 µM | [7] 22.1 µM | [8] 12.9 µM | [16] 15 µM | [9] 20.3 µM | [10] 22.2 µM | [11] 14.8 µM | [12] 29.6 µM | [13] 16 µM | [14] 27.4 µM | [15] 11.3 µM

CNC(=S)OCCC(C)CCCC(C)C (stereo not given)
inactive: [1] 13.7 µM | [2] 6.84 µM | [3] 17.3 µM | [4] 16.4 µM | [5] 19.6 µM | [6] 11.2 µM | [8] 16.7 µM | [16] 13.2 µM | [9] 16.3 µM | [10] 16.6 µM | [11] 7.16 µM | [12] 18.6 µM | [13] 17.3 µM | [14] 17.3 µM | [15] 16.3 µM
